Measurements published in PubChem BioAssay (NCI).
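Step 1: Grow cells in 96-well plates. Step 2: Expose to compound for 48 hours at 5 concentrations. Step 3: Interpolate endpoints linearly; if unreached, use highest concentration. GI50 is the concentration that inhibits growth by half. TGI is the concentration that stops growth completely.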

What was measured:
Assay in all cases: NCI anticancer screen, dose series, 48 h
786-0 renal = system: 786-0 renal
A498 renal = system: A498 renal
A549 NSCLC = system: A549 NSCLC
ACHN renal = system: ACHN renal
BT-549 breast = system: BT-549 breast
CAKI-1 renal = system: CAKI-1 renal
CCRF-CEM leukemia = system: CCRF-CEM leukemia
COLO 205 colon = system: COLO 205 colon
DU-145 prostate = system: DU-145 prostate
EKVX NSCLC = system: EKVX NSCLC
HCC-2998 colon = system: HCC-2998 colon
HCT-116 colon = system: HCT-116 colon
HCT-15 colon = system: HCT-15 colon
HL-60(TB) leukemia = system: HL-60(TB) leukemia
HOP-62 NSCLC = system: HOP-62 NSCLC
HOP-92 NSCLC = system: HOP-92 NSCLC
HS 578T breast = system: HS 578T breast
HT29 colon = system: HT29 colon
IGROV1 ovarian = system: IGROV1 ovarian
K-562 leukemia = system: K-562 leukemia
KM12 colon = system: KM12 colon
LOX IMVI melanoma = system: LOX IMVI melanoma
M14 melanoma = system: M14 melanoma
MALME-3M melanoma = system: MALME-3M melanoma
MCF7 breast = system: MCF7 breast
MDA-MB-231 breast = system: MDA-MB-231 breast
MDA-MB-435 = system: MDA-MB-435
MOLT-4 leukemia = system: MOLT-4 leukemia
NCI-H226 lung = system: NCI-H226 lung
NCI-H23 lung = system: NCI-H23 lung
NCI-H460 lung = system: NCI-H460 lung
NCI-H522 lung = system: NCI-H522 lung
NCI/ADR-RES ovarian = system: NCI/ADR-RES ovarian
OVCAR-3 ovarian = system: OVCAR-3 ovarian
OVCAR-4 ovarian = system: OVCAR-4 ovarian
OVCAR-5 ovarian = system: OVCAR-5 ovarian
OVCAR-8 ovarian = system: OVCAR-8 ovarian
PC-3 prostate = system: PC-3 prostate
RPMI-8226 leukemia = system: RPMI-8226 leukemia
RXF 393 renal = system: RXF 393 renal
SF-268 CNS = system: SF-268 CNS
SF-295 CNS = system: SF-295 CNS
SF-539 CNS = system: SF-539 CNS
SK-MEL-2 melanoma = system: SK-MEL-2 melanoma
SK-MEL-28 melanoma = system: SK-MEL-28 melanoma
SK-MEL-5 melanoma = system: SK-MEL-5 melanoma
SK-OV-3 ovarian = system: SK-OV-3 ovarian
SN12C renal = system: SN12C renal
SNB-19 CNS = system: SNB-19 CNS
SNB-75 CNS = system: SNB-75 CNS
SR leukemia = system: SR leukemia
SW-620 colon = system: SW-620 colon
T-47D breast = system: T-47D breast
TK-10 renal = system: TK-10 renal
U251 CNS = system: U251 CNS
UACC-257 melanoma = system: UACC-257 melanoma
UACC-62 melanoma = system: UACC-62 melanoma
UO-31 renal = system: UO-31 renal

With `Cc1ccc(S(=O)(=O)N2CCc3ccc(O)c4c3C2Cc2cc(Cl)ccc2-4)cc1` (stereo unspecified) the GI50 (786-0 renal) was 2.3 µM, the TGI (786-0 renal) was 9.59 µM and the GI50 (A498 renal) was 0.234 µM. The TGI (A498 renal) was 2.13 µM, the GI50 (A549 NSCLC) was 1.16 µM and the TGI (A549 NSCLC) was 5.44 µM. For the same compound, the GI50 (ACHN renal) was 2.06 µM, the TGI (ACHN renal) was 23.5 µM and the GI50 (BT-549 breast) was 1.95 µM. It also gave a TGI (BT-549 breast) of 9.66 µM, a GI50 (CAKI-1 renal) of 1.3 µM and a TGI (CAKI-1 renal) of 16.9 µM. The GI50 (CCRF-CEM leukemia) was 0.922 µM, the TGI (CCRF-CEM leukemia) was 14.1 µM and the GI50 (COLO 205 colon) was 8.12 µM. For the same compound, the TGI (COLO 205 colon) was 26.2 µM, the GI50 (DU-145 prostate) was 0.912 µM and the TGI (DU-145 prostate) was 2.4 µM. It also gave a GI50 (EKVX NSCLC) of 2.52 µM, a TGI (EKVX NSCLC) of 28.8 µM and a GI50 (HCC-2998 colon) of 1.65 µM. For the same compound, the TGI (HCC-2998 colon) was 5.37 µM, the GI50 (HCT-116 colon) was 1.11 µM and the TGI (HCT-116 colon) was 4.38 µM. It also gave a GI50 (HCT-15 colon) of 1.35 µM, a TGI (HCT-15 colon) of 6.97 µM and a GI50 (HL-60(TB) leukemia) of 1.05 µM. It also gave a TGI (HL-60(TB) leukemia) of 4.06 µM, a GI50 (HOP-62 NSCLC) of 1.56 µM and a TGI (HOP-62 NSCLC) of 5.65 µM. For the same compound, the GI50 (HOP-92 NSCLC) was 0.354 µM, the TGI (HOP-92 NSCLC) was 3.62 µM and the GI50 (HS 578T breast) was 0.889 µM. It also gave a TGI (HS 578T breast) of 6.68 µM, a GI50 (HT29 colon) of 5.61 µM and a TGI (HT29 colon) of 10.8 µM. For the same compound, the GI50 (IGROV1 ovarian) was 1.35 µM, the TGI (IGROV1 ovarian) was 5.86 µM and the GI50 (K-562 leukemia) was 1.16 µM. It also gave a TGI (K-562 leukemia) of 14.8 µM, a GI50 (KM12 colon) of 1.18 µM and a TGI (KM12 colon) of 4.21 µM. It also gave a GI50 (LOX IMVI melanoma) of 1.84 µM, a TGI (LOX IMVI melanoma) of 6.02 µM and a GI50 (M14 melanoma) of 0.88 µM. It also gave a TGI (M14 melanoma) of 2.96 µM, a GI50 (MALME-3M melanoma) of 2.59 µM and a TGI (MALME-3M melanoma) of 9.62 µM. For the same compound, the GI50 (MCF7 breast) was 1.08 µM, the TGI (MCF7 breast) was 6.28 µM and the GI50 (MDA-MB-231 breast) was 1.21 µM. For the same compound, the TGI (MDA-MB-231 breast) was 4.74 µM, the GI50 (MDA-MB-435) was 0.635 µM and the TGI (MDA-MB-435) was 1.45 µM. The GI50 (MOLT-4 leukemia) was 1.51 µM, the TGI (MOLT-4 leukemia) was 10.2 µM and the GI50 (NCI-H226 lung) was 2.63 µM. The TGI (NCI-H226 lung) was 8.4 µM, the GI50 (NCI-H23 lung) was 0.864 µM and the TGI (NCI-H23 lung) was 3.28 µM. The GI50 (NCI-H460 lung) was 1.03 µM, the TGI (NCI-H460 lung) was 3.74 µM and the GI50 (NCI-H522 lung) was 0.827 µM. It also gave a TGI (NCI-H522 lung) of 2.29 µM, a GI50 (NCI/ADR-RES ovarian) of 0.819 µM and a TGI (NCI/ADR-RES ovarian) of 2.27 µM. It also gave a GI50 (OVCAR-3 ovarian) of 0.733 µM, a TGI (OVCAR-3 ovarian) of 1.63 µM and a GI50 (OVCAR-4 ovarian) of 1.53 µM. It also gave a TGI (OVCAR-4 ovarian) of 7.51 µM, a GI50 (OVCAR-5 ovarian) of 2.02 µM and a TGI (OVCAR-5 ovarian) of 16.5 µM. The GI50 (OVCAR-8 ovarian) was 1.21 µM, the TGI (OVCAR-8 ovarian) was 5.83 µM and the GI50 (PC-3 prostate) was 0.917 µM. It also gave a TGI (PC-3 prostate) of 6.8 µM, a GI50 (RPMI-8226 leukemia) of 0.875 µM and a TGI (RPMI-8226 leukemia) of 2.6 µM. It also gave a GI50 (RXF 393 renal) of 0.83 µM, a TGI (RXF 393 renal) of 2.49 µM and a GI50 (SF-268 CNS) of 2.47 µM. The TGI (SF-268 CNS) was 9.72 µM, the GI50 (SF-295 CNS) was 1.37 µM and the TGI (SF-295 CNS) was 6.12 µM. It also gave a GI50 (SF-539 CNS) of 0.792 µM, a TGI (SF-539 CNS) of 2.83 µM and a GI50 (SK-MEL-2 melanoma) of 1.1 µM. It also gave a TGI (SK-MEL-2 melanoma) of 3.41 µM, a GI50 (SK-MEL-28 melanoma) of 1.68 µM and a TGI (SK-MEL-28 melanoma) of 5.84 µM. The GI50 (SK-MEL-5 melanoma) was 1.55 µM, the TGI (SK-MEL-5 melanoma) was 5.1 µM and the GI50 (SK-OV-3 ovarian) was 1.11 µM. It also gave a TGI (SK-OV-3 ovarian) of 3.75 µM, a GI50 (SN12C renal) of 1.78 µM and a TGI (SN12C renal) of 7.42 µM. The GI50 (SNB-19 CNS) was 1.48 µM, the TGI (SNB-19 CNS) was 14.8 µM and the GI50 (SNB-75 CNS) was 0.639 µM. The TGI (SNB-75 CNS) was 2.42 µM, the GI50 (SR leukemia) was 1.06 µM and the TGI (SR leukemia) was 4.26 µM. It also gave a GI50 (SW-620 colon) of 1.2 µM, a TGI (SW-620 colon) of 9.35 µM and a GI50 (T-47D breast) of 1.76 µM. It also gave a TGI (T-47D breast) of 19.7 µM, a GI50 (TK-10 renal) of 2.18 µM and a TGI (TK-10 renal) of 13.1 µM. The GI50 (U251 CNS) was 0.972 µM, the TGI (U251 CNS) was 3.77 µM and the GI50 (UACC-257 melanoma) was 1.45 µM. The TGI (UACC-257 melanoma) was 7.08 µM, the GI50 (UACC-62 melanoma) was 0.962 µM and the TGI (UACC-62 melanoma) was 3.77 µM. For the same compound, the GI50 (UO-31 renal) was 1.52 µM and the TGI (UO-31 renal) was 14.4 µM.
